The text below walks through data of paper PMC11345830, “Exploration of Hydrazide-Based HDAC8 PROTACs for the Treatment of Hematological Malignancies and Solid Tumors” (Journal of Medicinal Chemistry, 2024).

The test system of one test is Jurkat cells. In words: Cell viability MTS assay, Jurkat. Conditions: for IC50: Homo sapiens, Jurkat, 72 h, MTS assay, read-out: IC50 antiproliferative, Jurkat. The test is classed as cell-based. On the procedure: (§1) MTS assay was used to measure the cell viability. For single treatment, Jurkat, THP-1 and HEL (8000 cells/well), HCT116 and A549 (2000 cells/well) were seeded in 96-well plates in 100 μL complete medium. After overnight incubation, 50 μL of media containing various concentrations of compounds or the vehicle were added to each well. For cotreatment, cells were seeded in 96-well plates in 50 μL complete medium. After overnight incubation, 50 μL of Z-VAD-FMK, Nec-1, Fer-1, CQ, and other indicated compounds were added to each well. One hour later, 50 μL of media containing various concentrations of compounds were added to each well. After 72 h of treatment, 20 μL of CellTiter 96 AQueous One Solution reagent (Promega, Madison, USA) was added to each well according to manufacturer’s protocol. Plates were incubated at 37 °C for 1–2 h. The absorbance was determined at a wavelength of 490 nm using a Synergy H1 plate reader (Biotek, Winooski, VT, USA).

A further test has as its system THP-1 cells. In words: Cell viability MTS assay, THP-1. The test is classed as cell-based. The following applies: Homo sapiens, 72 h, read-out: IC50 antiproliferative, THP-1. As for the experimental part:
as §1

Another test has as its system HCT116 cells. Put plainly: Cell viability MTS assay, HCT116. The test is classed as cell-based. Conditions: Homo sapiens, HCT-116, 72 h, read-out: IC50 antiproliferative, HCT116. On the procedure:
as §1

The next test deals with A549 cells. Put plainly: Cell viability MTS assay, A549. The test is classed as cell-based. The following applies: Homo sapiens, 72 h, read-out: IC50 antiproliferative, A549. As for the experimental part: as §1
Test [1] concerns the target T1, HDAC8 (Homo sapiens, UniProt Q9BY41).
T1 sequence (Q9BY41 1-377): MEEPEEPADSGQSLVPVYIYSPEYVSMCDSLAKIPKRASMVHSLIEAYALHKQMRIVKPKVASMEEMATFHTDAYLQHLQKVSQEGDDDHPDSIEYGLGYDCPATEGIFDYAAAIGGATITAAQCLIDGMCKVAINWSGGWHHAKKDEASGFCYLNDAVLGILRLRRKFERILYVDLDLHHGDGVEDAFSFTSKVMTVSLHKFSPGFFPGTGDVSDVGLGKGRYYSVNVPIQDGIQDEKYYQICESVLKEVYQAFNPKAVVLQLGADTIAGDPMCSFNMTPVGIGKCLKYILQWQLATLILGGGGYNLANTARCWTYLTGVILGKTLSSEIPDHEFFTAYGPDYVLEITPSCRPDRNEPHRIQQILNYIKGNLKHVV
Put plainly: In vitro HDAC8 deacetylase inhibition assay.
Method: After a following incubation at 37 °C for 20 min, the fluorescence was measured on a Synergy H1 Platereader (BioTek, USA) with an excitation wavelength of 370 nm and an emission wavelength of 460 nm. Nonlinear regression was used for the determination of the IC50 of each compound.

Test [2] addresses T1, HDAC8. In words: HDAC8 degradation in Jurkat cells, Western blot. The following applies: for inhibition at 0.1 µM / Dmax: Jurkat; for inhibition at 0.1 µM: read-out: Degradation (%) at 100 nM (HDAC8); for Dmax: read-out: Dmax (HDAC8 degradation); for DC50: read-out: DC50 (HDAC8 degradation).
The target in test [3] is T1, HDAC8. Also on record: endogenous in cells; host or cells: HCT116; method as in PMID 35759908. The following applies: HCT116 cells; cited from earlier work.

Like-named read-outs stand apart in the source and are kept apart here.

`CCCCCCNNC(=O)c1ccc(CNC(=O)CN2CCC(c3ccc(NC(C)=O)cc3)CC2)cc1` [Compound 32, 2-(4-(4-Acetamidophenyl)piperidin-1-yl)-N-(4-(2-hexylhydrazine-1-carbonyl)benzyl)acetamide]: the concentration for half-maximal inhibition (IC50) in the test on Jurkat cells was 3 ± 0.3 µM; in the test with THP-1 cells, 3.4 ± 0.6 µM; with HCT116 cells it was 2.8 ± 0.3 µM; in the test with A549 cells, 12 ± 1.6 µM; on HDAC8 [1], 16.6 ± 2.8 µM. For the same compound, the “HDAC8 degradation by control compounds (in words)” value at HDAC8 [2] (Jurkat cells, 6 h) is “Neither NC-Z16 nor 32 induced HDAC8 degradation”.

Consider `COc1ccc(Cn2ccc3ccc(C(=O)NO)cc32)cc1` [PCI-34051], for which the IC50 in the test with Jurkat cells was 4.5 ± 0.7 µM; in the test with THP-1 cells, more than 33.3 µM; with HCT116 cells it was 21.9 ± 2.8 µM; with A549 cells it was more than 33.3 µM. Moreover, the “decreased antiproliferative potency after Z16 pretreatment compared to single treatment” value in the test with Jurkat cells (Jurkat pretreated with 50 nM Z16 for 2 h, then 72 h, MTS) is given as “about 5 fold”.

For the compound `O=C(CCCCOc1cccc(CCNC(=O)c2cccc(C(=O)NO)c2)c1)NCCCCCCNc1cccc2c1C(=O)N(C1CCC(=O)NC1=O)C2=O` (stereo not drawn) [PROTAC 2], the DC50 at HDAC8 [3] is 0.147 µM.

Take `Nc1cccc2c1C(=O)N(C1CCC(=O)NC1=O)C2=O` (stereo not drawn) [Poma, pomalidomide]: the IC50 with Jurkat cells, in the test on THP-1 cells, in the test with HCT116 cells and in the test with A549 cells was more than 33.3 µM in each case.

Turning to `CCCCCCNNC(=O)c1ccc(CNC(=O)CCCNc2cccc3c2C(=O)N(C2CCC(=O)NC2=O)C3=O)cc1` (stereo not drawn) [Z1, 4-((2-(2,6-Dioxopiperidin-3-yl)-1,3-dioxoisoindolin-4-yl)amino)-N-(4-(2-hexylhydrazine-1-carbonyl)benzyl)butanamide], the inhibition at 0.1 µM on HDAC8 [2] (6 h) came out at 73 ± 1%.

For `CCCCCCNNC(=O)c1ccc(CNC(=O)CCCCNc2cccc3c2C(=O)N(C2CCC(=O)NC2=O)C3=O)cc1` (stereo not drawn) [Z2, 5-((2-(2,6-Dioxopiperidin-3-yl)-1,3-dioxoisoindolin-4-yl)amino)-N-(4-(2-hexylhydrazine-1-carbonyl)benzyl)pentanamide], the inhibition at 0.1 µM at HDAC8 [2] (6 h) is 62 ± 2%.

For `CCCCCCNNC(=O)c1ccc(CNC(=O)CCCCCNc2cccc3c2C(=O)N(C2CCC(=O)NC2=O)C3=O)cc1` (stereo not drawn) [Z3, 6-((2-(2,6-Dioxopiperidin-3-yl)-1,3-dioxoisoindolin-4-yl)amino)-N-(4-(2-hexylhydrazine-1-carbonyl)benzyl)hexanamide], the inhibition at 0.1 µM on HDAC8 [2] (6 h) is 44 ± 13%.

Consider `CCCCCCNNC(=O)c1ccc(CNC(=O)CCCCCCNc2cccc3c2C(=O)N(C2CCC(=O)NC2=O)C3=O)cc1` (stereo not drawn) [Z4, 7-((2-(2,6-Dioxopiperidin-3-yl)-1,3-dioxoisoindolin-4-yl)amino)-N-(4-(2-hexylhydrazine-1-carbonyl)benzyl)heptanamide], for which the inhibition at 0.1 µM at HDAC8 [2] (6 h) was 90 ± 10%. Besides, the Dmax on HDAC8 [2] stood at 88%. In addition, the DC50 on HDAC8 [2] (Jurkat cells, 6 h) is 0.0167 µM.

Turning to `CCCCCCNNC(=O)c1ccc(CNC(=O)CCCCCCCNc2cccc3c2C(=O)N(C2CCC(=O)NC2=O)C3=O)cc1` (stereo not drawn) [Z5, 8-((2-(2,6-Dioxopiperidin-3-yl)-1,3-dioxoisoindolin-4-yl)amino)-N-(4-(2-Hexylhydrazine-1-carbonyl)benzyl)octanamide], at HDAC8 [2] (6 h), the inhibition at 0.1 µM was found to be 43 ± 17%.

Take `CCCCCCNNC(=O)c1ccc(CNC(=O)CCCCCCCCCNc2cccc3c2C(=O)N(C2CCC(=O)NC2=O)C3=O)cc1` (stereo not drawn) [Z6, 10-((2-(2,6-Dioxopiperidin-3-yl)-1,3-dioxoisoindolin-4-yl)amino)-N-(4-(2-hexylhydrazine-1-carbonyl)benzyl)decanamide]: the inhibition at 0.1 µM on HDAC8 [2] (6 h) is 43 ± 3%.

In the case of `CCCCCCNNC(=O)c1ccc(CNC(=O)CCCCCCCCCCCNc2cccc3c2C(=O)N(C2CCC(=O)NC2=O)C3=O)cc1` (stereo not drawn) [Z7, 12-((2-(2,6-Dioxopiperidin-3-yl)-1,3-dioxoisoindolin-4-yl)amino)-N-(4-(2-Hexylhydrazine-1-carbonyl)benzyl)dodecanamide], the “Degradation (%) at 100 nM (HDAC8)” value at HDAC8 [2] (Jurkat cells, 100 nM, 6 h, Western blot, n.d = no degradation) is “did not trigger visible degradation”.

Regarding `CCCCCCNNC(=O)c1ccc(CNC(=O)CCC(=O)N[C@H](C(=O)N2C[C@H](O)C[C@H]2C(=O)NCc2ccc(-c3scnc3C)cc2)C(C)(C)C)cc1` [Z8, N^1-(4-(2-Hexylhydrazine-1-carbonyl)benzyl)-N^4-((S)-1-((2S,4R)-4-hydroxy-2-((4-(4-methylthiazol-5-yl)benzyl)carbamoyl)pyrrolidin-1-yl)-3,3-dimethyl-1-oxobutan-2-yl)succinimide], the inhibition at 0.1 µM on HDAC8 [2] (6 h) was 20 ± 1%.

In the case of `CCCCCCNNC(=O)c1ccc(CNC(=O)CCCCC(=O)N[C@H](C(=O)N2C[C@H](O)C[C@H]2C(=O)NCc2ccc(-c3scnc3C)cc2)C(C)(C)C)cc1` [Z9, N^1-(4-(2-Hexylhydrazine-1-carbonyl)benzyl)-N^6-((S)-1-((2S,4R)-4-hydroxy-2-((4-(4-methylthiazol-5-yl)benzyl)carbamoyl)pyrrolidin-1-yl)-3,3-dimethyl-1-oxobutan-2-yl)adipamide], the inhibition at 0.1 µM at HDAC8 [2] (6 h) turned out to be 17 ± 8%.

For the compound `CCCCCCNNC(=O)c1ccc(CNC(=O)CCCCCCC(=O)N[C@H](C(=O)N2C[C@H](O)C[C@H]2C(=O)NCc2ccc(-c3scnc3C)cc2)C(C)(C)C)cc1` [Z10, N^1-(4-(2-Hexylhydrazine-1-carbonyl)benzyl)-N^8-((S)-1-((2S,4R)-4-hydroxy-2-((4-(4-methylthiazol-5-yl)benzyl)carbamoyl)pyrrolidin-1-yl)-3,3-dimethyl-1-oxobutan-2-yl)octanediamide], the inhibition at 0.1 µM at HDAC8 [2] (6 h) was found to be 14 ± 5%.

As for `CCCCCCNNC(=O)c1ccc(CNC(=O)CCCCCCCC(=O)N[C@H](C(=O)N2C[C@H](O)C[C@H]2C(=O)NCc2ccc(-c3scnc3C)cc2)C(C)(C)C)cc1` [Z11, N^1-(4-(2-Hexylhydrazine-1-carbonyl)benzyl)-N^9-((S)-1-((2S,4R)-4-hydroxy-2-((4-(4-methylthiazol-5-yl)benzyl)carbamoyl)pyrrolidin-1-yl)-3,3-dimethyl-1-oxobutan-2-yl)nonanediamide], the inhibition at 0.1 µM at HDAC8 [2] (6 h) came out at 48 ± 4%.

Regarding `CCCCCCNNC(=O)c1ccc(CNC(=O)CCCCCCCCC(=O)N[C@H](C(=O)N2C[C@H](O)C[C@H]2C(=O)NCc2ccc(-c3scnc3C)cc2)C(C)(C)C)cc1` [Z12, N^1-(4-(2-Hexylhydrazine-1-carbonyl)benzyl)-N^10-((S)-1-((2S,4R)-4-hydroxy-2-((4-(4-methylthiazol-5-yl)benzyl)carbamoyl)pyrrolidin-1-yl)-3,3-dimethyl-1-oxobutan-2-yl)decanediamide], the inhibition at 0.1 µM on HDAC8 [2] (6 h) turned out to be 83 ± 2%. For the same compound, at HDAC8 [2], the maximal degradation (Dmax) was determined as 93%. At HDAC8 [2] (Jurkat cells, 6 h), the DC50 worked out at 0.0621 µM.

For `CCCCCCNNC(=O)c1ccc(CNC(=O)CCCCCCCCCCC(=O)N[C@H](C(=O)N2C[C@H](O)C[C@H]2C(=O)NCc2ccc(-c3scnc3C)cc2)C(C)(C)C)cc1` [Z13, N^1-(4-(2-Hexylhydrazine-1-carbonyl)benzyl)-N^12-((S)-1-((2S,4R)-4-hydroxy-2-((4-(4-methylthiazol-5-yl)benzyl)carbamoyl)pyrrolidin-1-yl)-3,3-dimethyl-1-oxobutan-2-yl)dodecanediamide], on HDAC8 [2] (6 h), the inhibition at 0.1 µM was 65 ± 5%.

`CCCCCCNNC(=O)c1ccc(CNC(=O)C2CCN(c3ccc4c(c3)C(=O)N(C3CCC(=O)NC3=O)C4=O)CC2)cc1` (stereo not drawn) [Z14, 1-(2-(2,6-Dioxopiperidin-3-yl)-1,3-dioxoisoindolin-5-yl)-N-(4-(2-hexylhydrazine-1-carbonyl)benzyl)piperidine-4-carboxamide]: the inhibition at 0.1 µM at HDAC8 [2] (6 h) was 34 ± 3%.

For the compound `CCCCCCNNC(=O)c1ccc(CNCC2CCN(c3ccc4c(c3)C(=O)N(C3CCC(=O)NC3=O)C4=O)CC2)cc1` (stereo not drawn) [Z15, 4-((((1-(2-(2,6-Dioxopiperidin-3-yl)-1,3-dioxoisoindolin-5-yl)piperidin-4-yl)methyl)amino)methyl)-N′-hexylbenzohydrazide], the inhibition at 0.1 µM at HDAC8 [2] (6 h) came out at 25 ± 2%.

Take `CCCCCCNNC(=O)c1cccc(NCc2ccc(C(=O)N3CCC(c4ccc(NC5CCC(=O)NC5=O)cc4)CC3)cc2)c1` (stereo not drawn) [Z18, 3-((4-(4-(4-((2,6-Dioxopiperidin-3-yl)amino)phenyl)piperidine-1-carbonyl)benzyl)amino)-N′-hexylbenzohydrazide]: the inhibition at 0.1 µM on HDAC8 [2] (6 h) worked out at 13 ± 4%.
